Tested on: 677734-321-R-J1-PDC complex spheroid viability
Experiment: Anticancer human tumor 677734-321-R-J1-PDC patient-derived soft tissue sarcoma cell line growth inhibition [POLQ]
Settings: for IC50: curve of first compound; for viability, T/C: stronger effect = lower value; active = viability on the fitted dose curve at most 10% of control; inactive = the rest
Description: Multicellular complex tumor spheroid response to Polymerase (POL) inhibitors (novobiocin, ART-558, RP6685) in combination with a variety of drugs and investigational agents in selected tumor cell lines
The POL inhibitors (novobiocin, ART-558, and RP6685) were evaluated both individually and in combination with standard of care and investigational anticancer small molecules within a complex spheroid model of solid tumors. . Complex spheroids include a stromal component modeled by human endothelial cells (HUVEC) and fibroblasts modeled by human mesenchymal stem cells (MSCs). The concentration ranges selected for each drug and investigational agent were based upon clinically achievable concentrations if the clinical Cmax of the agent was known.
Compounds. The drugs and investigational agents: novobiocin (NSC847541), ART-558 (NSC835418), RP-6685 (NSC848927), peposertib (NSC802822), ceralasertib (NSC780249), elimusertib (NSC800525), camonsertib (NSC841442), AZD-1390 (NSC803789), olaparib (NSC753686), talazoparib (NSC767125), rucaparib (NSC756644), sotorasib (NSC818433), MRTX-1133 (NSC836407), SN-38 (NSC673596), topotecan (NSC609699), epotoside (NSC141540), doxorubicin (NSC123127), gemcitabine (NSC613327), 5-fluorouracil (NSC19893), paclitaxel (NSC125973), vemurafenib (NSC761431), MSA-2 (NSC828583), SN-011 (NSC837082), adavosertib (NSC754352), prexasertib (NSC758257), carboplatin (NSC241240) and oxaliplatin (NSC266046), were obtained from the National Cancer Institute (NCI) Developmental Therapeutics Program Chemical Repository (21). The FDA-approved anticancer drug set is available from the Developmental Therapeutics Program at https://dtp.cancer.gov/organization/dscb/obtaining/. […] The stock solutions were prepared in dimethyl sulfoxide (DMSO, Sigma-Aldrich, St. Louis, MO, cat. D2650), except for the platinum compounds which were prepared in saline (Quality Biological, Gaithersburg, MD, cat. 114-055-101), at 800-fold the tested concentration and stored at -70 degrees C prior to their use. All drugs and investigational agents were tested over a range starting from a high concentration at or near the clinical Cmax and decreasing in half-log increments. If the clinical Cmax for an agent had not been determined, the highest concentration tested was 10 microM, except for SN-38, which was tested at a high concentration of 1 microM.
Cell Culture. All cells were maintained in an incubator at 37 degrees C and 5% CO2 with 95% humidity. The PDC lines were cultured according to standard operating procedures established by the NCI PDMR (https://pdmr.cancer.gov). Table 3 of the manuscript, lists the cell lines along with the number of the three cell types plated to form the mct-spheroids and media for tumor cell growth. After thawing, all PDC lines, except 997537-175-T-J1-PDC and 415267-285-R-J2-PDC, were cultured in Matrigel-coated flasks prepared with a working solution of 1X Ham's F-12 nutrient mix, without supplementation (Thermo Fisher Scientific, cat. 11765054), 100 U/mL penicillin-streptomycin (Thermo Fisher Scientific, cat. 15140122), and 2.5% Matrigel (Corning Inc., Corning, NY, cat. 354248) for the first three passages. The two PDC lines 997537-175-T-J1-PDC and 415267-285-R-J2-PDC were cultured on uncoated flasks. The 857933-349-R-J2-PDC line was cultured in 6C/Colon 1B media containing advanced DMEM/F-12 (Thermo Fisher Scientific, cat. 12634028), 10 mM HEPES (Thermo Fisher Scientific, cat. 15630080), 1X GlutaMAX supplement (Thermo Fisher Scientific, cat. 35050061), 0.1 mg/mL primocin (InvivoGen, San Diego, CA, cat. ant-pm-2), 10% defined fetal bovine serum, heat inactivated (HyClone Laboratories Inc., Logan, UT, cat. SH30070.03HI), 50% L-WRN conditioned media (ATCC, cat. CRL-3276), 1.25 mM N-Acetyl-L-cysteine (Sigma-Aldrich, cat. A9165), 10 mM nicotinamide (Sigma-Aldrich, cat. N0636), 1X B-27 supplement (Thermo Fisher Scientific, cat. 17504044), 1X N-2 supplement (Thermo Fisher Scientific, cat. […]

[1] = second compound 0.0316 µM, first compound 0.0316 µM
[2] = second compound 0.0316 µM, first compound 0.1 µM
[3] = second compound 0.0316 µM, first compound 0.316 µM
[4] = second compound 0.0316 µM, first compound 1 µM
[5] = second compound 0.1 µM, first compound 0.0316 µM
[6] = second compound 0.1 µM, first compound 0.1 µM
[7] = second compound 0.1 µM, first compound 0.316 µM
[8] = second compound 0.1 µM, first compound 1 µM
[9] = second compound 0.316 µM, first compound 0.0316 µM
[10] = second compound 0.316 µM, first compound 0.1 µM
[11] = second compound 0.316 µM, first compound 0.316 µM
[12] = second compound 0.316 µM, first compound 1 µM
[13] = second compound 1 µM, first compound 0.0316 µM
[14] = second compound 1 µM, first compound 0.1 µM
[15] = second compound 1 µM, first compound 0.316 µM
[16] = second compound 1 µM, first compound 1 µM
[17] = second compound 3.16 µM, first compound 0.0316 µM
[18] = second compound 3.16 µM, first compound 0.1 µM
[19] = second compound 3.16 µM, first compound 0.316 µM
[20] = second compound 3.16 µM, first compound 1 µM
[21] = second compound 10 µM, first compound 0.0316 µM
[22] = second compound 10 µM, first compound 0.1 µM
[23] = second compound 10 µM, first compound 0.316 µM
[24] = second compound 10 µM, first compound 1 µM
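Also: spheroids exposed to compounds for one week.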
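For viability, T/C in this document: 100% = vehicle DMSO treated spheroids.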

CCCS(=O)(=O)Nc1ccc(F)c(C(=O)c2c[nH]c3ncc(-c4ccc(Cl)cc4)cc23)c1F + Cc1cccc(N(C)C(=O)C2C(O)CCN2c2nc(C)cc(C(F)(F)F)c2C#N)c1
inactive: viability, T/C [1] 104% | viability, T/C [2] 105% | viability, T/C [3] 108% | viability, T/C [4] 99.8% | viability, T/C (second compound 0.0316 µM, first compound 3.16 µM) 65.3% | viability, T/C [5] 94.5% | viability, T/C [6] 87.3% | viability, T/C [7] 100% | viability, T/C [8] 86.4% | viability, T/C (second compound 0.1 µM, first compound 3.16 µM) 59.1% | viability, T/C [9] 90.7% | viability, T/C [10] 101% | viability, T/C [11] 89.1% | viability, T/C [12] 96% | viability, T/C (second compound 0.316 µM, first compound 3.16 µM) 61.9% | viability, T/C [13] 101% | viability, T/C [14] 93.2% | viability, T/C [15] 79.6% | viability, T/C [16] 108% | viability, T/C (second compound 1 µM, first compound 3.16 µM) 49.4% | viability, T/C [17] 94.1% | viability, T/C [18] 84.6% | viability, T/C [19] 94% | viability, T/C [20] 98.4% | viability, T/C (second compound 3.16 µM, first compound 3.16 µM) 46.8% | viability, T/C [21] 80.1% | viability, T/C [22] 71.7% | viability, T/C [23] 80.6% | viability, T/C [24] 83.3% | viability, T/C (second compound 10 µM, first compound 3.16 µM) 30.8%
3120 nM: IC50 (second compound 1 µM)
3820 nM: IC50 (second compound 0.1 µM)
2000 nM: IC50 (second compound 10 µM)
2920 nM: IC50 (second compound 3.16 µM)
active: viability, T/C (second compound 0.0316 µM, first compound 10 µM) 5.8% | viability, T/C (second compound 0.1 µM, first compound 10 µM) 4.58% | viability, T/C (second compound 0.316 µM, first compound 10 µM) 3.41% | viability, T/C (second compound 1 µM, first compound 10 µM) 2.83% | viability, T/C (second compound 3.16 µM, first compound 10 µM) 2.44% | viability, T/C (second compound 10 µM, first compound 10 µM) 0.79%
4250 nM: IC50 (second compound 0.0316 µM)
3990 nM: IC50 (second compound 0.316 µM)

CCc1c2c(nc3ccc(O)cc13)-c1cc3c(c(=O)n1C2)COC(=O)[C@]3(O)CC + Nc1ccc(C#CCN(C(=O)Cc2ncc(C(F)(F)F)cc2C(F)(F)F)c2ccc(F)cc2)nn1
inactive: viability, T/C (second compound 0.0316 µM, first compound 0.00316 µM) 22.2% | viability, T/C (second compound 0.0316 µM, first compound 0.01 µM) 10.8% | viability, T/C (second compound 0.1 µM, first compound 0.00316 µM) 19.4% | viability, T/C (second compound 0.1 µM, first compound 0.01 µM) 9.07% | viability, T/C (second compound 0.316 µM, first compound 0.00316 µM) 24.3% | viability, T/C (second compound 0.316 µM, first compound 0.01 µM) 10.8% | viability, T/C (second compound 1 µM, first compound 0.00316 µM) 22.5% | viability, T/C (second compound 1 µM, first compound 0.01 µM) 10.8% | viability, T/C (second compound 3.16 µM, first compound 0.00316 µM) 22.5% | viability, T/C (second compound 10 µM, first compound 0.00316 µM) 25.9% | viability, T/C (second compound 10 µM, first compound 0.01 µM) 11%
< 3.16 nM: IC50 (second compound 0.0316 µM) | IC50 (second compound 0.1 µM) | IC50 (second compound 0.316 µM) | IC50 (second compound 1 µM) | IC50 (second compound 3.16 µM) | IC50 (second compound 10 µM)
active: viability, T/C [1] 5.47% | viability, T/C [2] 4.82% | viability, T/C [3] 4.02% | viability, T/C [4] 1.51% | viability, T/C [5] 6.31% | viability, T/C [6] 5.31% | viability, T/C [7] 3.85% | viability, T/C [8] 1.25% | viability, T/C [9] 5.47% | viability, T/C [10] 4.33% | viability, T/C [11] 3.5% | viability, T/C [12] 1.28% | viability, T/C [13] 5.38% | viability, T/C [14] 5.22% | viability, T/C [15] 4.16% | viability, T/C [16] 1.16% | viability, T/C (second compound 3.16 µM, first compound 0.01 µM) 8.9% | viability, T/C [17] 5.24% | viability, T/C [18] 4.43% | viability, T/C [19] 5.24% | viability, T/C [20] 1.3% | viability, T/C [21] 6.72% | viability, T/C [22] 4.78% | viability, T/C [23] 3.27% | viability, T/C [24] 1.35%
